Experimental data from paper PMC12073635, “Synthesis of Tricyclic and Tetracyclic Lactone Derivatives of Thieno[2,3-b]pyrazine or Thieno[2,3-b]quinoline: Preliminary Antitumor and Antiparasitic Activity Evaluation” (Molecules, 2025).

Assays:
[1] = test system: HeLa (cervical carcinoma) cells; experiment: SRB cell growth inhibition assay, HeLa; type: cell-based; conditions: Homo sapiens, 72 h, mean ± standard deviation
Description: (§1) The antitumor potential of the Sonogashira coupling products 2, tricyclic lactones 3 and 5, and tetracyclic lactones 7 was evaluated using the sulforhodamine B (SRB) assay against five human tumor cell lines: colorectal adenocarcinoma (CaCo-2), breast adenocarcinoma (MCF-7), gastric adenocarcinoma (AGS), cervical carcinoma (HeLa), and non-small cell lung cancer (NCI-H460). A primary pig liver cell culture (PLP2) was used to assess the toxicity of compounds.
(§2) The human tumor cell lines used were CaCo-2 (colorectal adenocarcinoma), MCF-7 (breast adenocarcinoma), AGS (gastric adenocarcinoma), HeLa (cervical carcinoma), NCI-H460 (lung carcinoma). Non-tumor cell lines were also tested: PLP2 (primary pig liver culture). All the cell lines were maintained in RPMI-1640 medium supplemented with 10% fetal bovine serum, glutamine (2 mM), penicillin (100 U/mL), and streptomycin ([…]), with the exception of PLP2, which was maintained in DMEM medium supplemented with fetal bovine serum (10%), glutamine and antibiotics. The culture flasks were incubated at 37 °C and with 5% CO2, under a humid atmosphere. The cells were used only when they had 70 to 80% confluence. A known mass of each compound was dissolved in DMSO/H2O (1:1, 1 mL), in order to obtain the stock solutions with a concentration of 1 mM. […] Each compound concentration (10 μL) was incubated with the cell suspension (190 μL) of the cell lines tested in 96-well microplates for 72 h. The microplates were incubated at 37 °C and with 5% CO2 in a humid atmosphere after checking the adherence of the cells. All cell lines were tested at a concentration of 10,000 cells/well. After the incubation period, the cells were treated: TCA (10% w/v; 100 μL) was previously cooled, and plates were incubated for 1 h at 4 °C, washed with water, and, after drying, a SRB solution (0.057%, m/v; 100 μL) was added and left to stand at room temperature for 30 min. To remove non-adhered SRB, plates were washed three times with a solution of acetic acid (1% v/v) and placed to dry. Finally, an adhered SRB was solubilized with Tris (10 mM, 200 μL) and the absorbance at a wavelength of 540 nm was read in the Biotek ELX800 microplate reader. The results obtained by the SRB assay were expressed regarding the concentration compounds that can inhibit cell growth by 50%—GI50. Doxorubicin was used as a positive control.

[2] = test system: CaCo-2 (colorectal adenocarcinoma) cells; experiment: SRB cell growth inhibition assay, CaCo-2; type: cell-based, human; conditions: Homo sapiens, Caco-2, 72 h, mean ± standard deviation
Description: as §1, §2

[3] = test system: NCI-H460 (non-small cell lung cancer) cells; experiment: SRB cell growth inhibition assay, NCI-H460; type: cell-based; conditions: Homo sapiens, 72 h, mean ± standard deviation
Description: as §1, §2

[4] = SRB assay, toxicity in non-tumor PLP2 cells; type: cell-based, pig; conditions: PLP2 primary pig liver cells (non-tumor); non-tumor primary pig liver cells, SRB assay, 72 h, mean ± standard deviation
Description: as §1, §2

[5] = test system: MCF-7 (breast adenocarcinoma) cells; experiment: SRB cell growth inhibition assay, MCF-7; type: cell-based, human; conditions: Homo sapiens, MCF7, 72 h, mean ± standard deviation
Description: as §1, §2

[6] = test system: AGS (gastric adenocarcinoma) cells; experiment: SRB cell growth inhibition assay, AGS; type: cell-based; conditions: Homo sapiens, 72 h, mean ± standard deviation
Description: as §1, §2

[7] = MTT cytotoxicity in THP-1-derived macrophages; type: cell-based, human; conditions: human, THP-1-derived macrophages (PMA-differentiated); MTT, 72 h, tested 100 to 12.5 μM; read-out: CC50 Interval in THP-1-Derived Macrophages
Description: Human leukemia cell line, THP-1 (ATCC® TIB-202™, Manassas, VA, USA) was cultured in RPMI-1640 medium supplemented with 10% heat-inactivated Fetal Bovine Serum (FBS), 2 mM L-glutamine, 100 UI/mL penicillin/streptomycin, 20 mM HEPES. The cell line was maintained in a humidified incubator at 37 °C and 5% CO2 by subculture every three days in 20 mL of media at a concentration of 1 × 10^5/mL in a T75 flask. All cell culture reagents were purchased from Lonza-Bioscience (Morrisville, NC, USA).
The cytotoxicity effect of compounds on THP-1-derived macrophages was assessed by the colorimetric MTT assay (3-(4,5-dimethylthiazol-2-yl)-2,5-diphenyl tetrazolium bromide). Briefly, THP-1 cells were suspended in RPMI complete medium at a density of 1 × 10^6 cells/mL and 100 μL/well were seeded in a 96-well plate and were differentiated into macrophages by addition of 40 ng/mL of phorbol-myristate 13-acetate (PMA, Sigma, Saint Louis, MI, USA) for 24 h followed by replacement with fresh medium for more 24 h. Subsequently, cells were incubated with 100 μL of compounds ranging from 100 to 12.5 μM after dilution in the RPMI complete medium. Each condition was carried out in quadruplicate. After 72 h of incubation at 37 °C 5% CO2, the medium was removed and 200 μL of 0.5 mg/mL MTT solution diluted in RPMI was added. Plates were incubated for an additional 4 h. Then 160 μL of media was removed and the same volume of 2-propanol was added. Absorbance was read at 570 nm using a Synergy 2 Multi-Mode Reader (Biotek, Winooski, VT, USA). Cytotoxicity was evaluated by the determination of the CC50 value (drug concentration that reduced the percentage of viable cells in 50%) and calculated by non-linear regression analysis using GraphPad Prism version 8.1.1 for Windows (GraphPad Software, San Diego, CA, USA). The results represent the average of at least three independent experiments. For each compound, the Selectivity Index (SI) was calculated as the ratio between cytotoxicity in THP-1 (CC50, 72 h) and activity against parasites (IC50, 72 h).

[8] = test system: T. brucei Lister 427 bloodstream forms; experiment: Resazurin-based anti-T. brucei assay; type: cell-based, Trypanosoma brucei; conditions: Trypanosoma brucei, 72 h, dose-response
Description: (§3) The antiparasitic activity of compounds 2c–g, 3a, 5a and 7 was evaluated at a single concentration of 20 μM, against Trypanosoma brucei (T. brucei) and Leishmania infantum (L. infantum) promastigotes. The results are shown in Table 9 together with the cytotoxicity data (CC50) in THP-1–derived macrophages cells.
T. brucei Lister 427 bloodstream forms were grown in a humidified incubator at 37 °C, 5% CO2 in complete HMI-9 medium 1 supplemented with 10% heat-inactivated Fetal Bovine Serum (FBS) and 100 UI/mL penicillin/streptomycin. Parasites maintenance was performed in T25 ventilated flasks by subpassage at a concentration of 1 × 10^4/mL every 2 days on T25 ventilated flasks.
The efficacy of compounds against T. brucei bloodstream forms was evaluated using a modified resazurin-based assay previously described in the literature. Parasites were added to 100 µL of serial dilutions of compounds in supplemented complete medium at a cell density of 5 × 10^3/mL for. As a quality control, a dose–response curve for the antitrypanosomal pentamidine was included in all the assays. The final volume of the assay is 200 µL/well. Each condition was carried out in duplicate. Following 72 h incubation at the specific conditions for T. brucei, 20 µL of a 0.5 mM resazurin solution was added and plates were incubated for a further 4 h under the same conditions. Fluorescence was measured at 544 nm and 590 nm excitation and emission wavelength, respectively, using a Synergy 2 Multi-Mode Reader (Biotek, Winooski, VT, USA). Results were shown as % of parasite growth inhibition compared to control (untreated parasites) and represent the average of at least three independent experiments. The effect was evaluated by the determination of the IC50 value (concentration required to inhibit growth in 50%) and calculated by non-linear regression curves using GraphPad Prism version 8.1.1 for Windows (GraphPad Software, San Diego CA, USA).

[9] = test system: L. infantum MHOM/MA/67/ITMAP-263 promastigotes; experiment: Resazurin-based assay against L. infantum promastigotes; type: cell-based, Leishmania infantum; conditions: Leishmania infantum, 72 h, dose-response
Description: as §3
L. infantum MHOM/MA/67/ITMAP-263 promastigotes forms were grown at 27 °C, in complete RPMI-1640 medium supplemented with 10% heat-inactivated Fetal Bovine Serum (FBS), 2 mM L-glutamine, 100 UI/mL penicillin/streptomycin, 20 mM HEPES. Parasites maintenance was performed in T25 non-ventilated flasks by subpassage at a concentration of 1 × 10^6/mL every 5 days on T25 non-ventilated flasks.
The compounds’ efficacy against L. infantum promastigotes was evaluated using a resazurin-based assay. Parasites were added to 100 µL of serial dilutions of compounds in supplemented complete medium at a cell density of 5 × 10^5/mL. As a quality control, a dose–response curve to the antileishmanial drug miltefosine was included in all the assays. The final volume of the assay was 200 µL/well. Each condition was carried out in duplicate. Following 72 h of incubation at the specific conditions for L. infantum, 20 µL of a 0.5 mM resazurin solution was added, and the plates were incubated for a further 4 h under the same conditions. The methodology to obtain the results was the same described in Section 3.2.2. for T. brucei.

| GI50 [1] | GI50 [2] | GI50 [3] | GI50 [5] | GI50 [6] | IC50 [8] | IC50 [9] | SMILES | GI50 at 72 h [4] | CC50 at 72 h [7] |
| --- | --- | --- | --- | --- | --- | --- | --- | --- | --- |
| 68.7 ± 3.05 µM | 70 ± 3.78 µM | 91.5 ± 9.12 µM | 94.8 ± 6.43 µM | 86.8 ± 4.99 µM | – | – | COC(=O)c1sc2nccnc2c1C#Cc1ccccc1 [Compound 2a, Methyl 7-(phenylethynyl)thieno[2,3-b]pyrazine-6-carboxylate] | > 125 µM | – |
| 47.9 ± 3.58 µM | 59.2 ± 1.76 µM | 48.6 ± 4.31 µM | 49.7 ± 2.41 µM | 51.4 ± 2.87 µM | – | – | COC(=O)c1sc2nccnc2c1C#Cc1ccc(N)cc1 [Compound 2b, Methyl 7-[(4-aminophenyl)ethynyl]thieno[2,3-b]pyrazine-6-carboxylate] | > 125 µM | – |
| 49.7 ± 2.69 µM | 79.9 ± 3.56 µM | 36.5 ± 0.69 µM | 77.5 ± 1.23 µM | 56.4 ± 3.76 µM | – | – | O=c1oc(-c2ccccc2)cc2c1sc1nccnc12 [Compound 3a, 8-phenyl-6H-pyrano[4′,3′:4,5]thieno[2,3-b]pyrazin-6-one] | > 125 µM | 50 to 100 µM |
| 58.1 ± 4.29 µM | 67.5 ± 4.19 µM | 82.7 ± 7.41 µM | 75.7 ± 6.48 µM | 74.3 ± 5.96 µM | – | – | Nc1ccc(-c2cc3c(sc4nccnc43)c(=O)o2)cc1 [Compound 3b, 8-(4-aminophenyl)-6H-pyrano[4′,3′:4,5]thieno[2,3-b]pyrazin-6-one] | > 125 µM | – |
| 48.4 ± 3.19 µM | 44.1 ± 0.93 µM | 72.4 ± 6.24 µM | 56.1 ± 3.56 µM | 51.5 ± 3.29 µM | – | – | O=c1oc(-c2ccc(F)cc2)cc2c1sc1nccnc12 [Compound 3c, 8-(4-fluorophenyl)-6H-pyrano[4′,3′:4,5]thieno[2,3-b]pyrazin-6-one] | > 125 µM | – |
| 50.3 ± 4.79 µM | 90.5 ± 6.47 µM | 45.3 ± 3.27 µM | 58.6 ± 1.86 µM | 56.2 ± 3.02 µM | – | – | COc1ccc(-c2cc3c(sc4nccnc43)c(=O)o2)cc1 [Compound 3d, 8-(4-Methoxyphenyl)-6H-pyrano[4′,3′:4,5]thieno[2,3-b]pyrazin-6-one] | > 125 µM | – |
| 38.2 ± 3.29 µM | 28.8 ± 1.85 µM | 29.3 ± 1.47 µM | 47.6 ± 4.5 µM | 43.8 ± 1.76 µM | – | – | Cc1ccc(-c2cc3c(sc4nccnc43)c(=O)o2)cc1 [Compound 3e, 8-(p-Tolyl)-6H-pyrano[4′,3′:4,5]thieno[2,3-b]pyrazin-6-one] | 90.5 ± 6.47 µM | – |
| 39 ± 1.78 µM | 52.5 ± 1.31 µM | 44 ± 3.28 µM | 48.6 ± 2.15 µM | 45.3 ± 0.89 µM | – | – | O=c1oc(-c2ccsc2)cc2c1sc1nccnc12 [Compound 3g, 8-(thiophen-3-yl)-6H-pyrano[4′,3′:4,5]thieno[2,3-b]pyrazin-6-one] | > 125 µM | – |
| 29.1 ± 2.81 µM | 18.3 ± 0.92 µM | 48.3 ± 1.08 µM | 45.1 ± 1.74 µM | 32.8 ± 1.56 µM | – | – | O=c1oc(-c2ccccc2)c(Br)c2c1sc1nccnc12 [Compound 5b, 9-Bromo-8-phenyl-6H-pyrano[4′,3′:4,5]thieno[2,3-b]pyrazin-6-one] | 89.8 ± 1.79 µM | – |
| 77.1 ± 1.12 µM | 87.8 ± 8.01 µM | 108 ± 5.44 µM | 90.3 ± 4.16 µM | 104 ± 9.12 µM | – | – | O=c1oc(-c2ccc(Br)cc2)c(-c2ccc(Br)cc2)c2c1sc1nc3ccccc3cc12 [Compound 7c, 3,4-Bis(4-bromophenyl)-1H-pyrano[4′,3′:4,5]thieno[2,3-b]quinolin-1-one] | > 125 µM | < 12.5 µM |
| 71.5 ± 2.36 µM | 87 ± 3.51 µM | 92.1 ± 3.89 µM | 76.4 ± 2.58 µM | 83.4 ± 6.27 µM | – | – | Cc1c(-c2ccccc2)oc(=O)c2sc3nc4ccccc4cc3c12 [Compound 7f, 4-Methyl-3-phenyl-1H-pyrano[4’,3’:4,5]thieno[2,3-b]quinolin-1-one] | > 125 µM | 12.5 to 50 µM |
| – | – | – | – | – | 2.9 µM | – | CCCCCCCCCCCCCCCCOP(=O)([O-])OCC[N+](C)(C)C [Milefosine, miltefosine, reference compound] | – | – |
| – | – | – | – | – | – | 2.94 µM | N=C(N)c1ccc(OCCCCCOc2ccc(C(=N)N)cc2)cc1 [Pentamidine, pentamidine, reference compound] | – | – |
| 0.05 µM | 0.04 µM | 0.07 µM | 0.05 µM | 0.03 µM | – | – | COc1cccc2c1C(=O)c1c(O)c3c(c(O)c1C2=O)C[C@@](O)(C(=O)CO)C[C@@H]3O[C@H]1C[C@H](N)[C@H](O)[C@H](C)O1 [doxorubicin, Doxorubicin, reference compound] | 0.1 µM | – |
